In patent US20210208130A1, “ASSAYS FOR CELL-BASED THERAPIES OR TREATMENTS” (The Regents of the University of California, priority 2018, published 2021):

System: Human Retinoblastoma (hRB) Y79 (ATCC HTB-18) cells
Test: Fluorescence-based (CellTiter-Blue, resazurin) cell viability potency assay with sodium butyrate insult
Details: 2, 4, 8 mM sodium butyrate; 72 hours incubation
From the text: In the following examples, Human Retinoblastoma (hRB) Y79 (ATCC® HTB-18™) cells were expanded and maintained for use by culturing in ATCC®-formulated RPMI-1640 medium supplemented with 20% fetal bovine serum. The cells were maintained according to ATCC® recommendations. Human retinal progenitor cells (hRPCs) and human retinal pigment epithelium cells (hRPE cells) were isolated from 18-20 week human fetuses and propagated in standard medium (SM) comprising Advanced DMEM/F12 with 1×N−2 supplement, 1×GlutaMax-1, 20 ng/ml human FGF-basic protein and 20 ng/ml human EGF protein.
In the following experiments, conditioned medium (CM) was collected from hRPCs, hRB cells or hRPE grown in SM for 48 hours (with replacement of the SM after 24 hours). Cells were harvested and counted after each CM collection.
First, 12.5×10^3, 2.5×10^4, 5.0×10^4, 1.0×10^5 and 2.0×10^5 Human Retinoblastoma (hRB) Y79 (ATCC® HTB-18™) cells were plated in five separate wells of a 96 well assay plate and incubated in 50 μl SM. […] Resorufin is highly fluorescent, meaning that the fluorescence signal generated can be used to determine the viability of the cells incubated with Resazurin.
The fluorescence of each well was measured after incubation with resazurin. Fluorescence signals were read at an excitation wavelength of 520 nm and an emission wavelength of 580-640 nm. […]

CCCC(=O)[O-].[Na+] [sodium butyrate]
fluorescence signal (cell proliferation and viability) with higher concentrations of sodium butyrate: decreased fluorescence signals
